Consider 52 compounds from patent publication US20240315989A1 (priority 2021, published 2024).

For assay [1], the target named is T1, σ1 site (Homo sapiens, UniProt Q99720). Particulars: read-out: Affinity for σ1 Site (Ki or KD values); cited from earlier work.
Assay [2] has as its target T1, σ1 site. Particulars: cited from earlier work.
The test system of another assay is SARS-CoV-2 infection. Briefly: Retrospective cohort (BJC Healthcare): antidepressant exposure and ED or hospital encounter within 30 days. The class given is in vivo, human. Particulars: for Unadjusted Odds Ratio, ED or hospital encounter within 30 days / Adjusted Odds Ratio, ED or hospital encounter within 30 days: vs No Antidepressant (Ref); for Unadjusted Odds Ratio, ED or hospital encounter within 30 days: logistic regression; for Adjusted Odds Ratio, ED or hospital encounter within 30 days: multivariable logistic regression, complete cases.

Where [3] appears, read: share of exposed outpatients with an encounter after a positive SARS-CoV-2 test.

T1 sequence (Q99720 whole entry): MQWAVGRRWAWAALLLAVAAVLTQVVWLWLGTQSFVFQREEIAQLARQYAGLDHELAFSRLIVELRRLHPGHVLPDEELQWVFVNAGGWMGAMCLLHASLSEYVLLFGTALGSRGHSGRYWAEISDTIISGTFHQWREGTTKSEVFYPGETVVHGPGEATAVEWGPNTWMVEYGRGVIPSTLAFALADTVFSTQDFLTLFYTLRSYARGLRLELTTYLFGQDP

For the compound `COC(=O)C1(c2ccc(C)cc2)CC1CN1CCC(O)(c2ccccc2)CC1` (single isomer, unassigned; (+)) [(+)-MR 200], the inhibition constant Ki on σ1 site [1] was less than 50 nM. For the same compound, at σ1 site [2], the “Function on σ1 Site” value is on record as “Antagonist”.

In the case of `CC(C)=CCN1CCC2(C)c3cc(O)ccc3CC1C2C` (single isomer, unassigned; (+)) [(+)-Pentazocine], on σ1 site [2], the “Function on σ1 Site” value is “Agonist”.

Take `CC(C)=CCN1CCC2(C)c3cc(O)ccc3CC1C2C` (single isomer, unassigned; (-)) [(−)-Pentazocine]: on σ1 site [2], the “Function on σ1 Site” value was “Agonist”.

For the compound `O=C(NC1CCN(Cc2ccccc2)CC1)c1ccc(I)cc1` [4-IBP], the Ki at σ1 site [1] was less than 50 nM. The “Function on σ1 Site” value on σ1 site [2] was “Agonist”.

Turning to `CCCN1CCC[C@H](c2cccc(O)c2)C1` [(+)-3-PPP], the “Function on σ1 Site” value on σ1 site [2] is given as “Agonist”.

In the case of `NC12CC3CC(CC(C3)C1)C2` [Amantadine], the “Function on σ1 Site” value on σ1 site [2] is listed as “Agonist^?”.

Regarding `CN(C)CCN(C)CCc1ccc(Cl)c(Cl)c1` [BD 1047], at σ1 site [2], the “Function on σ1 Site” value was “Antagonist”.

Consider `CN1CCN(CCc2ccc(Cl)c(Cl)c2)CC1` [BD 1063], for which, on σ1 site [1], the Ki is less than 50 nM. The “Function on σ1 Site” value on σ1 site [2] was “Antagonist”.

As for `OC(CCCN1CCN(c2ncc(F)cn2)CC1)c1ccc(F)cc1` (stereo not shown) [BMY 14802], the “Function on σ1 Site” value on σ1 site [2] is reported as “Antagonist”.

Consider `CCN(CC)CCOCCOC(=O)C1(c2ccccc2)CCCC1` [Carbetapentane], for which the Ki at σ1 site [1] is less than 50 nM. The “Function on σ1 Site” value at σ1 site [2] is “Agonist”.

`C#CCN(C)CCCOc1ccc(Cl)cc1Cl` [Clorgyline]: the Ki on σ1 site [1] was less than 50 nM. Further, the “Function on σ1 Site” value on σ1 site [2] was “Agonist^?”.

Take `COC(=O)[C@H]1[C@@H](OC(=O)c2ccccc2)C[C@@H]2CC[C@H]1N2C` [Cocaine]: the Ki on σ1 site [1] was less than 10000 nM.

`C[C@]12CC[C@H](OS(=O)(=O)O)CC1=CC[C@@H]1[C@@H]2CC[C@]2(C)C(=O)CC[C@@H]12` [DHEAS]: the inhibition constant Ki on σ1 site [1] was less than 10000 nM. Besides, the “Function on σ1 Site” value at σ1 site [2] is recorded as “Agonist”.

Regarding `CN(C)CC(c1ccc(O)cc1)C1(O)CCCCC1` (stereo not shown) [Desvenlafaxine], the “ED or hospital encounter within 30 days, %” value in the assay with SARS-CoV-2 infection (setting [3]) was 18.7%. In addition, in the assay on SARS-CoV-2 infection, the “Unadjusted Odds Ratio, ED or hospital encounter within 30 days” value (“Unadjusted Odds Ratio” for short) turned out to be 2.15 and the “Adjusted Odds Ratio, ED or hospital encounter within 30 days” value amounted to 0.95.

On to `Cc1ccc2c(c1)[C@]13CCCC[C@@H]1[C@H](C2)N(C)CC3` [Dimemorfan], for which, at σ1 site [1], the inhibitory constant (Ki) is less than 500 nM. Besides, the “Function on σ1 Site” value at σ1 site [2] was “Agonist”.

For the compound `COc1cc2c(cc1OC)C(=O)C(CC1CCN(Cc3ccccc3)CC1)C2` (stereo not shown) [Donepezil], the inhibition constant (Ki) on σ1 site [1] is less than 50 nM. In addition, the “Function on σ1 Site” value on σ1 site [2] is “Agonist”.

On to `CN(C)CCC=C1c2ccccc2COc2ccccc21` [Doxepin], for which, in the assay on SARS-CoV-2 infection (setting [3]), the “ED or hospital encounter within 30 days, %” value came to 27.5%. Moreover, in the assay with SARS-CoV-2 infection, the “Unadjusted Odds Ratio” value amounted to 3.55 and the “Adjusted Odds Ratio, ED or hospital encounter within 30 days” value is 1.10.

As for `CNCC[C@H](Oc1cccc2ccccc12)c1cccs1` [Duloxetine], in the assay with SARS-CoV-2 infection (setting [3]), the “ED or hospital encounter within 30 days, %” value turned out to be 21.8%. Besides, in the assay on SARS-CoV-2 infection, the “Unadjusted Odds Ratio” value was found to be 2.61 and the “Adjusted Odds Ratio, ED or hospital encounter within 30 days” value is 0.95.

As to `O=C(CC1CCN(CC2CC2)CC1)c1ccc(F)cc1` [Dup 734], the inhibitory constant (Ki) on σ1 site [1] is less than 50 nM.

`Fc1ccc(C2=CCN(CCCCn3cncn3)CC2)cc1.O=C(O)CC(O)(CC(=O)O)C(=O)O` [E-5842]: the inhibitory constant (Ki) at σ1 site [1] was less than 50 nM. Also, the “Function on σ1 Site” value at σ1 site [2] is given as “Antagonist”.

Turning to `OC(CN1CCC(Cc2ccc(F)cc2)CC1)c1ccc(Cl)cc1` (stereo not shown) [Eliprodil (SL-82.0715), Eliprodil], the Ki at σ1 site [1] was less than 500 nM.

On to `OC(CCCN1CCC(O)(c2ccc(Cl)cc2)CC1)c1ccc(F)cc1` (stereo not shown) [Haloperidol Metabolite II], for which the “Function on σ1 Site” value on σ1 site [2] is on record as “Irreversible”.

Take `OC1(c2ccc(Cl)cc2)CCNCC1` [Haloperidol Metabolite I]: at σ1 site [1], the inhibitory constant (Ki) is less than 500 nM. The “Function on σ1 Site” value at σ1 site [2] is on record as “Antagonist”.

Consider `CCC(C/C=C/c1ccccc1)(c1ccccc1)N(C)CC1CC1` (stereo not shown) [JO-1784 (Igmesine), Igmesine], for which the Ki on σ1 site [1] was less than 50 nM. Moreover, the “Function on σ1 Site” value at σ1 site [2] is recorded as “Agonist”.

For `CCN(CC)C(=O)[C@@]1(c2ccccc2)C[C@H]1CN` [Levomilnacipran], in the assay on SARS-CoV-2 infection (setting [3]), the “ED or hospital encounter within 30 days, %” value came out at 20.0%.

As to `CNC(C)Cc1ccc2c(c1)OCO2` (stereo not shown) [MDMA], at σ1 site [1], the Ki was less than 10000 nM.

Consider `COCCN1CCN(C[C@H]2CCN(c3ccc(Cl)cc3)C2=O)CC1.O=C(O)C(O)C(O)C(=O)O` [MS-377], for which the inhibition constant Ki at σ1 site [1] is less than 50 nM. Besides, the “Function on σ1 Site” value on σ1 site [2] is given as “Antagonist”.

Consider `CC12CC3CC(C)(C1)CC(N)(C3)C2` [Memantine], for which the Ki at σ1 site [1] is less than 10000 nM. Moreover, on σ1 site [2], the “Function on σ1 Site” value is recorded as “Agonist^?”.

With `CN[C@@H](C)Cc1ccccc1` [Metamphetamine], at σ1 site [1], the Ki was less than 10000 nM.

On to `S=C=Nc1cccc(C2(N3CCCCC3)CCCCC2)c1` [Metaphit], for which, on σ1 site [1], the Ki was less than 500 nM. In addition, at σ1 site [2], the “Function on σ1 Site” value was “Irreversible”.

For the compound `CN1CCN2c3ncccc3Cc3ccccc3C2C1` (stereo not shown) [Mirtazapine], the “ED or hospital encounter within 30 days, %” value in the assay with SARS-CoV-2 infection (setting [3]) worked out at 27.9%.

For the compound `CCCN(CCC)CCc1ccc(OC)c(OCCc2ccccc2)c1` [NE-100], the “Function on σ1 Site” value on σ1 site [2] is recorded as “Antagonist”.

In the case of `CCc1nn(CCCN2CCN(c3cccc(Cl)c3)CC2)c(=O)n1CCOc1ccccc1` [Nefazodone], the “ED or hospital encounter within 30 days, %” value in the assay with SARS-CoV-2 infection (setting [3]) came out at 0.0%.

With `CNc1cc(OC)c(C(=O)NC2CCN(Cc3ccccc3)C2C)cc1Cl` (stereo not shown) [Nemonapride], on σ1 site [1], the Ki was less than 50 nM.

Take `CNCCC=C1c2ccccc2CCc2ccccc21` [Nortriptyline]: the “ED or hospital encounter within 30 days, %” value in the assay on SARS-CoV-2 infection (setting [3]) is on record as 24.3%. In the assay on SARS-CoV-2 infection, the “Unadjusted Odds Ratio” value worked out at 3.02 and the “Adjusted Odds Ratio, ED or hospital encounter within 30 days” value is given as 1.08.

Consider `COc1cccc2c1CCC(=O)N2CCCN1CCN(c2cccc(Cl)c2)CC1` [OPC-14523], for which the Ki on σ1 site [1] is less than 50 nM. Besides, the “Function on σ1 Site” value on σ1 site [2] is listed as “Agonist”.

With `O=C(OCCN1CCOCC1)C1(c2ccccc2)CCCCC1` [PRE 084], the “Function on σ1 Site” value on σ1 site [2] is “Agonist”.

Regarding `COc1ccc(N2C[C@H](CN3CCC(O)(c4ccc5c(c4)OCO5)CC3)OC2=O)cc1` [Panamesine (EMD 57445), Panamesine], at σ1 site [1], the inhibition constant Ki is less than 50 nM. For the same compound, the “Function on σ1 Site” value at σ1 site [2] is “Antagonist”.

For the compound `O=C1NC(=O)C(c2ccccc2)(c2ccccc2)N1` [Phenytoin (DPH), Phenytoin], the “Function on σ1 Site” value on σ1 site [2] is reported as “Allosteric”.

For `CC(=O)[C@H]1CC[C@H]2[C@@H]3CCC4=CC(=O)CC[C@]4(C)[C@H]3CC[C@]12C` [Progesterone], the “Function on σ1 Site” value on σ1 site [2] is on record as “Antagonist”.

As to `C[C@@H]1CN(CCCn2c3ccccc3c3ccccc32)C[C@H](C)N1` [Rimcazole (BW-234U), Rimcazole], the “Function on σ1 Site” value on σ1 site [2] was “Antagonist”.

`Cc1cccc(/C=N/N2CCN(C(c3ccccc3)c3ccccc3)CC2)n1` [Ropizine]: the “Function on σ1 Site” value on σ1 site [2] is listed as “Allosteric”.

Turning to `O=c1n(CCCN2CCN(c3cccc(Cl)c3)CC2)nc2ccccn12` [Trazodone], the “ED or hospital encounter within 30 days, %” value with SARS-CoV-2 infection (setting [3]) amounted to 22.6%. Further, in the assay with SARS-CoV-2 infection, the “Unadjusted Odds Ratio” value is listed as 2.74 and the “Adjusted Odds Ratio, ED or hospital encounter within 30 days” value was 0.99.

For the compound `N#Cc1ccc2[nH]cc(CCCCN3CCN(c4ccc5oc(C(N)=O)cc5c4)CC3)c2c1` [Vilazodone], the “ED or hospital encounter within 30 days, %” value with SARS-CoV-2 infection (setting [3]) is on record as 29.4%. Further, in the assay with SARS-CoV-2 infection, the “Unadjusted Odds Ratio” value is 3.91 and the “Adjusted Odds Ratio, ED or hospital encounter within 30 days” value amounted to 1.36.

As for `Cc1ccc(Sc2ccccc2N2CCNCC2)c(C)c1` [Vortioxetine], the “ED or hospital encounter within 30 days, %” value with SARS-CoV-2 infection (setting [3]) is recorded as 14.3%. Moreover, in the assay on SARS-CoV-2 infection, the “Unadjusted Odds Ratio” value is 1.56 and the “Adjusted Odds Ratio, ED or hospital encounter within 30 days” value is 0.58.

For `CC(NC(C)(C)C)C(=O)c1cccc(Cl)c1` (stereo not shown) [bupropion], the “ED or hospital encounters within 30 days, %” value in the assay on SARS-CoV-2 infection (<20 mg fluoxetine-equivalent daily) turned out to be 13.9%; in the assay on SARS-CoV-2 infection (≥20 mg fluoxetine-equivalent daily), 15.0%; in the assay on SARS-CoV-2 infection (≥40 mg fluoxetine-equivalent daily) it was 20.0%. Further, the “ED or hospital encounter within 30 days, %” value with SARS-CoV-2 infection (setting [3]) amounted to 14.3%.

`CN(C)CCCC1(c2ccc(F)cc2)OCc2cc(C#N)ccc21` (stereo not shown) [citalopram]: in the assay on SARS-CoV-2 infection (setting [3]), the “ED or hospital encounter within 30 days, %” value is reported as 15.8%.

Regarding `CN(C)CCCN1c2ccccc2CCc2ccc(Cl)cc21` [clomipramine], the “ED or hospital encounter within 30 days, %” value in the assay with SARS-CoV-2 infection (in vivo) is recorded as 18.2%.

As for `CNCCCN1c2ccccc2CCc2ccccc21` [desipramine], in the assay with SARS-CoV-2 infection (setting [3]), the “ED or hospital encounter within 30 days, %” value is listed as 10.0%. In the assay with SARS-CoV-2 infection, the “Unadjusted Odds Ratio” value was 1.04 and the “Adjusted Odds Ratio, ED or hospital encounter within 30 days” value is given as 0.24.

`CN(C)CCCN1c2ccccc2CCc2ccccc21` [imipramine]: at σ1 site [1], the Ki is less than 500 nM. Besides, in the assay on SARS-CoV-2 infection (setting [3]), the “ED or hospital encounter within 30 days, %” value came out at 23.5%. Besides, the “Function on σ1 Site” value at σ1 site [2] is “Agonist”.

Regarding `COc1ccc(C(CN(C)C)C2(O)CCCCC2)cc1` (stereo not shown) [venlafaxine], the “ED or hospital encounter within 30 days, %” value in the assay on SARS-CoV-2 infection (setting [3]) was found to be 17.1%. Moreover, in the assay with SARS-CoV-2 infection, the “Unadjusted Odds Ratio” value amounted to 1.94 and the “Adjusted Odds Ratio, ED or hospital encounter within 30 days” value is 0.78.

In the case of Pregnenolone sulfate, the “Function on σ1 Site” value at σ1 site [2] was “Agonist”.
